# Laboratory results taken from patent US20210137961A1, “Compositions and Methods for Treating Dry Eye Diseases” (priority 2017, published 2021).
# How the values were obtained:
# CXCL8 = experiment: LPS-induced CXCL8 (IL-8) production in PMA-differentiated U937 cells (ELISA); assay type: cell-based, human; conditions: for inhibition of CXCL8 (IL-8) production (in words): solithromycin and telithromycin at 100 μM, clarithromycin at 333 μM
# Description: (§1) EXAMPLE. […] Cells. The human monocytic cell line U937 was obtained from the American Type Culture Collection (ATCC, Rockville, Md.). PBMCs from COPD patients were obtained from Brompton hospital and separated by AccuSPIN (Sigma-Aldrich). […] U937 cells were differentiated into adherent macrophage-like morphology by exposure to PMA (50 ng/ml) for 48 h in complete growth medium. Cell viability was assessed microscopically by trypan blue staining. Cell toxicity was determined by MTT assay as needed. This study was approved by the ethics committee of the Royal Brompton Hospitals, and all subjects gave written informed consent. Cytokine ELISA. TNFα and IL-8 concentrations in the supernatant of cell cultures were determined by sandwich ELISA according to the manufacturer's instructions (R&D Systems Europe, Abingdon, UK). Statistical analysis. The results were expressed as the mean±SEM. Comparisons of data in two groups were performed using the Student's t test or the Wilcoxon signed rank test. Multiple comparisons were made by one-way ANOVA with post hoc test (Dunnett's) as appropriate. The difference was considered significant at p<0.05. […] Anti-inflammatory effects of solithromycin in U937 cells.
# MMP9 = MMP9 activity in PMA-stimulated U937 cells (gelatin zymography); assay type: cell-based, human; conditions: PMA stimulation
# Description: EXAMPLE. […] Cells. The human monocytic cell line U937 was obtained from the American Type Culture Collection (ATCC, Rockville, Md.). PBMCs from COPD patients were obtained from Brompton hospital and separated by AccuSPIN (Sigma-Aldrich). […] U937 cells were differentiated into adherent macrophage-like morphology by exposure to PMA (50 ng/ml) for 48 h in complete growth medium. Cell viability was assessed microscopically by trypan blue staining. Cell toxicity was determined by MTT assay as needed. This study was approved by the ethics committee of the Royal Brompton Hospitals, and all subjects gave written informed consent. Zymography. MMP9 enzyme activity was measured by gelatin zymography. […] After electrophoresis, gels were incubated and rinsed with Novex® zymogram renaturing buffer (Invitrogen) for 30 min at room temperature. The gels were then rinsed in Novex® zymogram developing buffer (Invitrogen) for 30 min at room temperature prior to overnight incubation in the developing buffer at 37° C. After incubation, the gels were stained using a Colloidal Blue Staining Kit (Invitrogen) to visualize the zymogen bands. Statistical analysis. The results were expressed as the mean±SEM. Comparisons of data in two groups were performed using the Student's t test or the Wilcoxon signed rank test. Multiple comparisons were made by one-way ANOVA with post hoc test (Dunnett's) as appropriate. The difference was considered significant at p<0.05.
# [1] = test system: Haemophilus parainfluenzae; experiment: MIC against Haemophilus parainfluenzae; assay type: cell-based; conditions: N 11
# TNFα = experiment: LPS-induced TNFα production in PMA-differentiated U937 cells (ELISA); assay type: cell-based, human; conditions: for inhibition of TNFα production (in words): solithromycin and telithromycin at 100 μM, clarithromycin at 333 μM
# Description: as §1
# phospholipase = experiment: Phospholipase inhibition in other cell lines; assay type: cell-based; conditions: for IC50: read-out: IC50 for phospholipase inhibition, other cell lines
# Mycoplasma hominis = experiment: MIC against Mycoplasma hominis; assay type: cell-based; conditions: N 13
# [2] = test system: Immortalized human meibomian gland epithelial cells (HMGECs); experiment: HMGEC lysosome and neutral lipid accumulation, differentiation and proliferation; assay type: cell-based; conditions: meibomian gland epithelial cells
# Description: EXAMPLE. Immortalized human meibomian gland epithelial cells (HMGECs) are cultured in the presence of vehicle or test compound, such as Soli (2, 10, or 20 μg/ml) for 1 to 7 days under proliferating (keratinocyte serum-free medium; KSFM) or differentiating (DMEM/F12 plus 10% fetal bovine serum) conditions. A positive control (epidermal growth factor and bovine pituitary extract for proliferation; Azi for differentiation) and a negative control (media only) are included with the experiments. Additional details are described in JAMA Ophthalmol 132(2): 226-228 (Feb. 1, 2014) and Current Eye Research, 1-6 (2017), each of which is incorporated herein by reference.
# HMGECs are evaluated for cell number, neutral lipid content (LipidTox) and lysosome accumulation (LysoTracker). […] Strong lysosomal effects are observed with the 10 μg/ml dose of Soli (relative stimulation=30), on the first day of dosing, and those effects are statistically different (p<0.01) from the control group (relative stimulation=13). In contrast, the 10 μg/m1Azi dose is not statistically different from the control group (relative stimulation=18) until day 3. […] Compounds described herein, such a Soli, affect lysosome and lipid accumulation and differentiation of HMGECs. The effect of Soli on lysosome appearance is faster than that of Azi.
# P. acnes = experiment: MIC against P. acnes; assay type: cell-based; conditions: for MIC50 / MIC90: Cutibacterium acnes
compound,measurement,setting,value
"CC[C@H]1OC(=O)[C@H](C)[C@@H](O[C@H]2C[C@@](C)(OC)[C@@H](O)[C@H](C)O2)[C@H](C)[C@@H](O[C@@H]2O[C@H](C)C[C@H](N(C)C)[C@H]2O)[C@](C)(O)C[C@@H](C)CN(C)[C@H](C)[C@@H](O)[C@]1(C)O [Azithromycin, azithromycin]",inhibition of CXCL8 (IL-8) production (in words),CXCL8,did not inhibit
same,"inhibitory effects on MMP9 activity, lower than solithromycin",MMP9,10 fold
same,MIC Range,[1],0.5-2^ μg/mL
same,inhibition of TNFα production (in words),TNFα,did not inhibit
same,reversibility of phospholipase inhibition,phospholipase; after dosing is stopped,remains unchanged for several days after dosing is stopped
same,IC50,phospholipase,300 µM
same,MIC Range,Mycoplasma hominis,0.5-4^ μg/mL
"CC[C@H]1OC(=O)[C@H](C)[C@@H](O[C@H]2C[C@@](C)(OC)[C@@H](O)[C@H](C)O2)[C@H](C)[C@@H](O[C@@H]2O[C@H](C)C[C@H](N(C)C)[C@H]2O)[C@](C)(OC)C[C@@H](C)C(=O)[C@H](C)[C@@H](O)[C@]1(C)O [Clarithromycin, clarithromycin]",IC50,"CXCL8; Homo sapiens, U-937, LPS, PMA-differentiated U937 cells, read-out: IC50 on CXCL8 release",506 ± 44 µM
same,inhibition of CXCL8 (IL-8) production (in words),CXCL8,modest effects
same,"inhibitory effects on MMP9 activity, lower than solithromycin",MMP9,10 fold
same,IC50,"TNFα; Homo sapiens, U-937, LPS, PMA-differentiated U937 cells, read-out: IC50 on TNFα release",426 ± 63.9 µM
same,inhibition of TNFα production (in words),TNFα,modest effects
same,meibomian gland differentiation (in words),[2],do not cause clinically significant meibomian gland differentiation
CCCCCCCCCC(=O)N[C@@H](Cc1c[nH]c2ccccc12)C(=O)N[C@H](CC(N)=O)C(=O)N[C@@H](CC(=O)O)C(=O)N[C@@H]1C(=O)NCC(=O)N[C@@H](CCCN)C(=O)N[C@@H](CC(=O)O)C(=O)N[C@H](C)C(=O)N[C@@H](CC(=O)O)C(=O)NCC(=O)N[C@H](CO)C(=O)N[C@@H]([C@H](C)CC(=O)O)C(=O)N[C@@H](CC(=O)c2ccccc2N)C(=O)O[C@@H]1C [Daptomycin],MIC50,P. acnes; P. acnes,2 µg/mL
same,MIC90,P. acnes; P. acnes (51 species),4 µg/mL
same,MIC Range,P. acnes; P. acnes (51 species),0.5 to 8 µg/mL
CC[C@H]1OC(=O)[C@H](C)[C@@H](O[C@H]2C[C@@](C)(OC)[C@@H](O)[C@H](C)O2)[C@H](C)[C@@H](O[C@@H]2O[C@H](C)C[C@H](N(C)C)[C@H]2O)[C@](C)(O)C[C@@H](C)C(=O)[C@H](C)[C@@H](O)[C@]1(C)O [Erythromycin],inhibition of CXCL8 (IL-8) production (in words),CXCL8,did not inhibit
same,effect on MMP9 activity (in words),MMP9,no effect
same,inhibition of TNFα production (in words),TNFα,did not inhibit
same,meibomian gland differentiation (in words),[2],do not cause clinically significant meibomian gland differentiation
same,IC50,phospholipase,> 400 µM
CC[C@H]1OC(=O)[C@H](C)C(=O)[C@H](C)[C@@H](O[C@@H]2O[C@H](C)C[C@H](N(C)C)[C@H]2O)[C@](C)(OC)C[C@@H](C)C(=O)[C@H](C)[C@H]2N(CCCCn3cnc(-c4cccnc4)c3)C(=O)O[C@]12C [Telithromycin],inhibition of CXCL8 (IL-8) production (in words),CXCL8,did not inhibit
same,inhibition of TNFα production (in words),TNFα,did not inhibit
same,meibomian gland differentiation (in words),[2],do not cause clinically significant meibomian gland differentiation
CN[C@H](CC(C)C)C(=O)N[C@H]1C(=O)N[C@@H](CC(N)=O)C(=O)N[C@H]2C(=O)N[C@H]3C(=O)N[C@H](C(=O)N[C@H](C(=O)O)c4cc(O)cc(O)c4-c4cc3ccc4O)[C@H](O)c3ccc(c(Cl)c3)Oc3cc2cc(c3O[C@@H]2O[C@H](CO)[C@@H](O)[C@H](O)[C@H]2O[C@H]2C[C@](C)(N)[C@H](O)[C@H](C)O2)Oc2ccc(cc2Cl)[C@H]1O [Vancomycin],MIC50,P. acnes; P. acnes,1 µg/mL
same,MIC90,P. acnes; P. acnes (51 species),1 µg/mL
same,MIC Range,P. acnes; P. acnes (51 species),0.12 to 1 µg/mL
CC[C@H]1OC(=O)[C@H](C)C(=O)[C@H](C)[C@@H](O[C@@H]2O[C@H](C)C[C@H](N(C)C)[C@H]2O)[C@](C)(OC/C=C/c2cnc3ccccc3c2)C[C@@H](C)C(=O)[C@H](C)[C@H]2NC(=O)O[C@@]21C [cethromycin],meibomian gland differentiation (in words),[2],do not cause clinically significant meibomian gland differentiation
Penicillin,MIC 50%,P. acnes; P. acnes,≤0.03 µg/mL
same,MIC 90%,P. acnes; P. acnes (51 species),0.06 µg/mL
same,MIC Range,P. acnes; P. acnes (51 species),≤0.03-1^ μg/ml
